Laboratory results taken from patent publication US10806794B2, “Protease inhibitors having enhanced features” (priority 2008, dated 2020).
Values after ≈ are worked out from the molar mass of the structure shown. Values joined by “and” are separate entries in the source; they are usually repeats but may differ in a detail not shown here. Equal values may be shown once.

Columns and labels:
HIV-1 virions = assay: Infectivity of HIV-1 virions from treated cells on naive CEM-SS cells; format: cell-based
Procedure: In concert with p24 analysis, cell supernatants collected from cells exposed to test compounds at 8, 16, or 24 hours post-infection were used to infect naïve CEM-SS cells. Cell viability was measured six days post-infection as a measure of virus infectivity (Table 5).

HIV-1RF [1] = assay: p24 levels after single high MOI HIV-1RF infection of CEM-SS cells, time of addition; format: cell-based
Procedure: The cytoprotective effect against HIV of the PEG-protease inhibitor conjugates was evaluated during a single round of high multiplicity of infection (“MOI”) HIV-1 infection in CEM-SS cells. CEM-SS cells were incubated for one hour with a single high MOI dose of HIV-1RF. Cells were washed to remove free virus, then test compounds were added to cells at 0, 2, 4, 6, 8, 16, or 24 hours after HIV-1 infection. To monitor viral replication, cell supernatants were analyzed at 30 hours post-infection for levels of the HIV capsid protein p24 (FIG. 1). […] Nevirapine inhibited viral replication at 1 μM when added to cells up to four hours post-infection, and at 10 μM when added up to eight hours post-infection.

CEM-SS cells = assay: Post-exposure assay: toxicity in CEM-SS cells; conditions: human
Procedure: (§1) The effects of pre- and post-infection PI treatment on CEM-SS toxicity were assessed. […] Cell toxicity was monitored six days after infection using XTT reagent. In the post-exposure assay, test compounds were added to cells 0, 24, 48, or 72 h after HIV-1 infection, and cell viability was measured six days post-infection.

HIV-1RF [2] = assay: Pre-exposure assay: CEM-SS cells treated before HIV-1RF infection, cell viability; format: cell-based; conditions: for EC50: Human immunodeficiency virus 1, CEM-SS, read-out: EC50
Procedure: as §1

HIV-1RF [3] = assay: Post-exposure assay: compounds added after HIV-1 infection of CEM-SS cells, cell viability; format: cell-based; conditions: Human immunodeficiency virus 1, CEM-SS, read-out: EC50
Procedure: as §1

HIV-1 HT/92/599 = assay: HIV-1 reverse transcriptase activity after infection of fresh human PBMCs; format: cell-based; conditions: read-out: PBMC/HIV-1HT/92/599 EC50 ± SD; seven days, reverse transcriptase activity
Procedure: (§2) Fresh human peripheral blood mononuclear cells (PBMCs) obtained from a commercial source were purified following centrifugation using a Ficoll-Hypaque density gradient. Viable cells were induced to proliferate in the presence of PHA-P and recombinant human IL-2 for 72 hours. […] Cell supernatant containing HIV-1 viral was incubated for 90 minutes at 37° C. with a reaction mixture containing EGTA, Triton X-100, Tris (pH 7.4), DTT, MgCl2, poly rA, oligo dT, and tritiated thymidine triphosphate (TTP). Incorporation of TTP into DNA was monitored by spotting the reaction mixture onto a DEAE filter mat, followed by washes with 5% phosphate buffer, distilled water, and 70% ethanol, and subsequent drying of the mat. Radioactivity was measured using a Wallac 1450 Microbeta Trilux liquid scintillation counter using Opti-Fluor O. Test compound-associated toxicity was measured in PBMCs cultured for seven days in the absence of virus using XTT reagent. […] TI was calculated as TC50/EC50.

human plasma proteins = assay: Plasma protein binding by equilibrium dialysis, human plasma; format: in vitro ADME; conditions: human plasma, 5 μM, fraction unbound
Procedure: In assays to estimate binding of test compounds to plasma proteins, test compound solutions (5 μM) are prepared in buffer and species-specific plasma (final DMSO concentration 0.5%). The plasma-containing solution is added to one side of the membrane of an equilibrium dialysis system, and the plasma-free is added to the other side. Dialysis was allowed to reach equilibrium by incubation for two hours at 37° C. The concentration of compound on both sides of the membrane was measured using LC-MS/MS.

HIV-1RF [4] = assay: Anti-HIV cytoprotection in CEM-SS cells infected with HIV-1RF (XTT); format: cell-based; conditions: six days, XTT; read-out: CEM-SS/HIV-1RF EC50 ± SD
Procedure: To evaluate whether conjugated protease inhibitors retain the ability to protect against HIV-1 infection, CEM-SS cells infected with the RF strain of HIV-1 were treated with test compounds for six days, and then cell viability was monitored using the tetrazolium dye XTT. […] A value for Therapeutic Index (TI) was calculated as TC50/EC50.

[5] = Metabolic stability in human liver microsomes; conditions: human liver microsomes, 3 μM
Procedure: The human liver microsome-mediated biotransformation of PEG-PI compounds was determined by monitoring the loss of the substrate as a function of time. […] Test compounds (3 μM final concentration) were preincubated with pooled (male and female) human liver microsomes (0.5 mg/mL final protein concentration) in buffer (0.1M phosphate buffer, pH 7.4) at 37° C. Reactions were initiated by the addition of NADPH (1 mM final concentration), and allowed to continue for 0, 5, 15, 30, and 45 minutes. […] Sample supernatants are analyzed by liquid chromatography-tandem mass spectrometry.

Caco-2 cells = assay: Bi-directional permeability in Caco-2 monolayers; conditions: Caco-2 monolayers
Procedure: Absorption properties of various compounds were measured using bi-directional permeability assays in Caco-2 cells. […] The efflux ratio is calculated as the ratio of the Papp(B→A)/Papp(A→B).

PBMCs = assay: Toxicity in PBMCs cultured without virus (XTT); conditions: seven days, absence of virus, XTT
Procedure: as §2, with “mat.” for “mat. Radioactivity was measured using a Wallac 1450 Microbeta Trilux liquid scintillation counter using Opti-Fluor O. Test compound-associated toxicity was measured in PBMCs cultured for seven days in the absence of virus using XTT reagent.”

[6] = tested on: human liver microsomal proteins; assay: Microsomal protein binding by equilibrium dialysis; format: in vitro ADME; conditions: human liver microsomes, 3 μM, fraction unbound
Procedure: PEGylated protease inhibitors were evaluated for their propensity to be bound by proteins in normal human plasma or in human liver microsome preparations using equilibrium dialysis analysis. For microsomal protein binding, test compound (final concentration=3 μM) was diluted into either buffer alone or buffer containing human liver microsomes. The protein-free and microsome-containing solutions were then added to either side of an equilibrium dialysis system and allowed to reach equilibrium at 37° C. The concentration of compound on both sides of the membrane at equilibrium was quantified by LC-MS/MS, and the fraction of compound that remains unbound (Fu) is calculated.

[7] = drug addition 0 h post-infection
[8] = drug addition 24 h post-infection
[9] = drug addition 48 h post-infection
[10] = drug addition 72 h post-infection

COc1cc(-c2ccc(/N=N/c3ccc4c(S(=O)(=O)O)cc(S(=O)(=O)O)c(N)c4c3O)c(OC)c2)ccc1/N=N/c1ccc2c(S(=O)(=O)O)cc(S(=O)(=O)O)c(N)c2c1O [Chicago Sky Blue]
Percent Infectivity of HIV-1 Virions in comparison to virus-alone control (HIV-1 virions; 0.5 μg/mL, added 8 h post-infection): 100.0% | Percent Infectivity of HIV-1 Virions in comparison to virus-alone control (HIV-1 virions; 0.5 μg/mL, added 16 h post-infection): 177.8% | Percent Infectivity of HIV-1 Virions in comparison to virus-alone control (HIV-1 virions; 0.5 μg/mL, added 24 h post-infection): 266.4% | Percent Infectivity of HIV-1 Virions in comparison to virus-alone control (HIV-1 virions; 5 μg/mL, added 8 h post-infection): 100.0% | Percent Infectivity of HIV-1 Virions in comparison to virus-alone control (HIV-1 virions; 5 μg/mL, added 16 h post-infection): 331.2% | Percent Infectivity of HIV-1 Virions in comparison to virus-alone control (HIV-1 virions; 5 μg/mL, added 24 h post-infection): 100.0% | Percent Infectivity of HIV-1 Virions in comparison to virus-alone control (HIV-1 virions; 50 μg/mL, added 8 h post-infection): 100.0% | Percent Infectivity of HIV-1 Virions in comparison to virus-alone control (HIV-1 virions; 50 μg/mL, added 16 h post-infection): 562.3% | Percent Infectivity of HIV-1 Virions in comparison to virus-alone control (HIV-1 virions; 50 μg/mL, added 24 h post-infection): 100.0% | effect on p24 levels (HIV-1RF [1]; added at any time after infection, even at 50 μg/mL): did not affect p24 levels | TC50 (CEM-SS cells; 3 days): 5.6 µg/mL (≈ 6.19 µM) | TC50 (CEM-SS cells; 4 days): 5.5 µg/mL (≈ 6.08 µM) | TC50 (CEM-SS cells; 5 days): 4.9 µg/mL (≈ 5.42 µM) | TC50 (CEM-SS cells; 6 days): 8.2 µg/mL (≈ 9.06 µM) | EC50 (HIV-1RF [2]; exposure 2 h pre-infection): > 10 µg/mL | EC50 (HIV-1RF [2]; exposure 8 h pre-infection): > 10 µg/mL | EC50 (HIV-1RF [2]; exposure 24 h pre-infection): > 10 µg/mL | antiviral activity after pre-treatment of cells (HIV-1RF [2]; concentrations up to 10 μg/mL): did not demonstrate antiviral activity | EC50 (HIV-1RF [3]; [7]): 1.84 µg/mL | EC50 (HIV-1RF [3]; [8]): > 10 µg/mL | EC50 (HIV-1RF [3]; [9]): > 10 µg/mL | EC50 (HIV-1RF [3]; [10]): > 10 µg/mL

CC(C)c1nc(CN(C)C(=O)N[C@H](C(=O)N[C@@H](Cc2ccccc2)C[C@H](O)[C@H](Cc2ccccc2)NC(=O)OCc2cncs2)C(C)C)cs1 [Ritonavir]
Percent Infectivity of HIV-1 Virions in comparison to virus-alone control (HIV-1 virions; 0.01 μM, added 8 h post-infection): 42.9% | Percent Infectivity of HIV-1 Virions in comparison to virus-alone control (HIV-1 virions; 0.01 μM, added 16 h post-infection): 331.2% | Percent Infectivity of HIV-1 Virions in comparison to virus-alone control (HIV-1 virions; 0.01 μM, added 24 h post-infection): 100.0% | Percent Infectivity of HIV-1 Virions in comparison to virus-alone control (HIV-1 virions; 0.1 μM, added 8 h post-infection): 1.0% | Percent Infectivity of HIV-1 Virions in comparison to virus-alone control (HIV-1 virions; 0.1 μM, added 16 h post-infection): 3.7% | Percent Infectivity of HIV-1 Virions in comparison to virus-alone control (HIV-1 virions; 0.1 μM, added 24 h post-infection): 26.6% | Percent Infectivity of HIV-1 Virions in comparison to virus-alone control (HIV-1 virions; 1 μM, added 8 h post-infection): 0.1% | Percent Infectivity of HIV-1 Virions in comparison to virus-alone control (HIV-1 virions; 1 μM, added 16 h post-infection): 0.1% | Percent Infectivity of HIV-1 Virions in comparison to virus-alone control (HIV-1 virions; 1 μM, added 24 h post-infection): 0.1% | time of addition up to which antiviral activity (reduced p24) was seen (HIV-1RF [1]; 0.1 μM): up to six | time of addition up to which antiviral activity (reduced p24) was seen (HIV-1RF [1]; 1 μM): up to 24 hours post-infection | EC50 (HIV-1RF [2]; exposure 2 h pre-infection): 720 nM | EC50 (HIV-1RF [2]; exposure 8 h pre-infection): 750 nM | EC50 (HIV-1RF [2]; exposure 24 h pre-infection): 680 nM | EC50 values after pre-treatment of cells (HIV-1RF [2]; in words): sub-micromolar | EC50 (HIV-1RF [3]; [7]): 40 nM | EC50 (HIV-1RF [3]; [8]): 30 nM | EC50 (HIV-1RF [3]; [9]): 70 nM | EC50 (HIV-1RF [3]; [10]): 260 nM

COCCOCCOCCOCCOCCOCCOCCOc1ccc(C[C@H](NC(=O)O[C@H]2CO[C@H]3OCC[C@H]32)C(O)CN(CC(C)C)S(=O)(=O)c2ccc(N)cc2)cc1 (some centres unmarked) [mPEG7-O-Darunavir]
EC50 (HIV-1 HT/92/599): 250 ± 27 nM | Plasma Protein Binding Fu ± SD (human plasma proteins): 0.314 ± 0.0116 | EC50 (HIV-1RF [4]): 47 nM and 76 nM | CLint ± SEM [5]: 113 ± 8.87 μL/min/mg protein | t1/2 [5]: 12.2 min | Efflux ratio (B→A/A→B) (Caco-2 cells): 33 | A→B, ×10^−6 (Caco-2 cells; apical to basolateral): 0.19 cm/s | PBMC TC50 ± SD (PBMCs): >200000 nM | Microsomal Protein Binding Fu ± SD [6]: 0.84 ± 0.0131
